Source: PubChem BioAssay AID1199 (EPA DSSTox, 2008)
Activity calls are given as the source filed them.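 How the source made its calls: active means a tumour-causing dose and a tumour site recorded for mice in at least one sex group; inconclusive means only government mouse studies exist and were judged inadequate; inactive means mouse studies exist but none gave tumours.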

System: mouse carcinogenicity bioassay, TD50 from CPDB
Experiment: DSSTox (CPDBAS) Carcinogenic Potency Database Summary Mouse Bioassay Results
Description: The Carcinogenic Potency Database (CPDB) is a unique and widely used international resource of the results of over 6500 chronic, long-term animal cancer tests on over 1500 chemical substances. The CPDB provides easy access to the bioassay literature, with qualitative and quantitative analyses of both positive and negative experiments that have been published over the past 50 years in the general literature and by the National Cancer Institute/National Toxicology Program. The CPDB standardizes the diverse literature of cancer bioassays that vary widely in protocol, histopathological examination and nomenclature, and in the published author's choices of what information to provide in their papers. Results are reported in the CPDB for tests in rats, mice, hamsters, dogs, and nonhuman primates, and are based on the most positive result among all experiments for each sex-species. The DSSTox CPDBAS (all species) file incorporates data from the CPDB Summary Tables for the full list of over 1500 chemical substances tested in at least one species. Summary bioassay results for Mouse (TD50, tumor sites, male, female, both sexes) are provided in the CPDB Summary Tables and the DSSTox CPDBAS file for over 1000 chemical substances.
TD50 is a standardized quantitative measure of carcinogenic potency (analogous to an LD50) and is reported in the CPDB Summary Table for each species. Activity Score for actives is computed by mapping of LOG10 (1/TD50_Mouse_mmol) activity values spanning range [MIN, MAX] onto Integer 1-100 Activity Score range, where 100 is highest potency and 1 is lowest: Activity Score = 100 * INTEGER[(log10(1/Activity) - MIN)/(MAX […] MIN)]. If activity is reported but no TD50_Mouse_mmol value is computed, such as for a mixture, the Activity Score is assigned the activity value "50". […] Target sites are reported for each sex-species group with a positive result in the CPDB on the basis of a positive author's opinion for the particular site, using all results from both the general literature and NCI/NTP bioassays. If a chemical has two or more target sites listed, the results may be from different experiments, and a single site may be a target organ in more than one experiment, as well. Blank entry in TargetSites field indicates no results reported.

[1] = TD50_Mouse_Note: no positive results, TargetSites_Mouse_Female: no positive results
[2] = TD50_Mouse_Note: TD50 is harmonic mean of more than one positive test, TargetSites_Mouse_Female: liver
[3] = TD50_Mouse_Note: no positive results
[4] = TargetSites_Mouse_Female: liver
[5] = TD50_Mouse_Note: TD50 is harmonic mean of more than one positive test, TargetSites_Mouse_Female: stomach
[6] = TargetSites_Mouse_BothSexes: no positive results
[7] = TD50_Mouse_Note: TD50 is harmonic mean of more than one positive test, TargetSites_Mouse_Female: liver, vascular system

| Compound | outcome [1] | also measured |
| --- | --- | --- |
| CNC(=O)CSP(=S)(OC)OC | inactive; no positive results |  |
| CCCCOC(=O)c1ccc(O)cc1 | inactive; no positive results |  |
| CN(C)c1ccc(C(=N)c2ccc(N(C)C)cc2)cc1 |  | Potency [2]: 0.206 mmol/kg/day |
| OC[C@H]1O[C@H](O[C@]2(CCl)O[C@H](CCl)[C@@H](O)[C@@H]2O)[C@H](O)[C@@H](O)[C@H]1Cl | inactive; no positive results |  |
| C[N+](C)(C)CCCl | inactive; no positive results |  |
| CCN(CC)C(=O)c1cccc(C)c1 | inactive; no positive results |  |
| C/C=C\c1ccc(OC)cc1 | inactive |  |
| S=C=Nc1ccccc1 | inactive; no positive results |  |
| C=C1CC[C@H](O)C/C1=C/C=C1\CCC[C@]2(C)[C@@H]([C@H](C)/C=C/[C@H](C)C(C)C)CC[C@@H]12 |  | outcome [3]: inactive |
| C=CC(=O)NCO |  | Potency (TD50_Mouse_Note: TD50 is harmonic mean of more than one positive test, TargetSites_Mouse_Female: harderian gland, liver, lung, ovary): 0.263 mmol/kg/day |
| Cc1ccc(/C(=C\CN2CCCC2)c2ccccn2)cc1 | inactive; no positive results |  |
| Clc1ccc(C(c2ccc(Cl)cc2)C(Cl)(Cl)Cl)cc1 |  | Potency (TD50_Mouse_Note: TD50 is harmonic mean of more than one positive test, greater than ten-fold variation among TD50 values for positive res, TargetSites_Mouse_Female: hematopoietic system, liver, lung): 0.0361 mmol/kg/day |
| C=CC1CC=CCC1 (configuration not stated) |  | Potency (TargetSites_Mouse_Female: ovary): 0.98 mmol/kg/day |
| CCCN(CCC)S(=O)(=O)c1ccc(C(=O)O)cc1 |  | Potency [4]: 1.89 mmol/kg/day |
| COc1ccc(CCN2CCC(Nc3nc4ccccc4n3Cc3ccc(F)cc3)CC2)cc1 | inactive; no positive results |  |
| Oc1ccc(O)cc1 |  | Potency (TD50_Mouse_Note: TD50 is harmonic mean of more than one positive test, greater than ten-fold variation among TD50 values for positive res, TargetSites_Mouse_Female: liver): 2.04 mmol/kg/day |
| Oc1ccc2c(c1)OCO2 |  | Potency [5]: 32.5 mmol/kg/day |
| O=[N+]([O-])c1ccc(Cl)cc1 |  | Potency (TD50_Mouse_Note: TD50 is harmonic mean of more than one positive test, TargetSites_Mouse_Female: vascular system): 3 mmol/kg/day |
| COP(=S)(OC)Oc1ccc([N+](=O)[O-])cc1 | inactive; no positive results |  |
| Nc1ccc(N=Nc2ccccc2)c(N)n1 |  | Potency [4]: 0.285 mmol/kg/day |
| CC(=O)C(N=Nc1ccc(-c2ccc(N=NC(C(C)=O)C(=O)Nc3ccccc3)c(Cl)c2)cc1Cl)C(=O)Nc1ccccc1 (configuration not stated) | inactive; no positive results |  |
| CBr | inactive; no positive results |  |
| C=C(C)CCl |  | Potency (TD50_Mouse_Note: TD50 is harmonic mean of more than one positive test, TargetSites_Mouse_Female: harderian gland, stomach): 11 mmol/kg/day; Potency [5]: 0.858 mmol/kg/day |
| Cc1cc(=O)[nH]c(=S)[nH]1 |  | outcome [6]: inactive |
| Nc1cc([N+](=O)[O-])ccc1O | inactive; no positive results |  |
| OCc1ccccc1 | inactive; no positive results |  |
| Nc1ccc(-c2ccc(N)c(Cl)c2)cc1Cl |  | Potency (TD50_Mouse_Note: TD50 value is overestimated as upper 99% confidence limit from study with 100% tumor incidence but no lifetable, harmoni): 0.0377 mmol/kg/day |

| Compound | outcome [1] | also measured |
| --- | --- | --- |
| Nc1ncn[nH]1 |  | Potency [2]: 0.301 mmol/kg/day |
| CCn1c2ccccc2c2cc(N)ccc21 |  | outcome (TD50_Mouse_Note: TD50 is harmonic mean of more than one positive test, TD50_Mouse_mmol was not calculated for this mixture, but Activiity, TargetSites_Mouse_Female: liver): active; liver; Potency [2]: 0.156 mmol/kg/day |
| COc1ccc(N)c(OC)c1 | inactive; no positive results |  |
| CCC(=O)C(CC(C)N(C)C)(c1ccccc1)c1ccccc1 (configuration not stated) | inactive; no positive results |  |
| O=C1c2ccccc2CN2C(=O)c3ccccc3CN12 |  | Potency [7]: 3.27 mmol/kg/day |
| CN(C)C(=O)Nc1ccc(Cl)cc1 | inactive; no positive results |  |
| Nc1ccc2c(n1)[nH]c1ccccc12 |  | Potency [7]: 0.272 mmol/kg/day |
| C[C@]12CC[C@@H]3c4ccc(O)cc4CC[C@H]3[C@@H]1CC[C@@H]2O | inactive |  |
| c1ccc2n[nH]nc2c1 | inactive; no positive results |  |
| CCC1NC(=O)C2C(Cl)C(Cl)CN2C(=O)C(CO)NC(=O)CC(c2ccccc2)NC(=O)C(CO)NC1=O (configuration not stated) |  | Potency: 0.0412 mmol/kg/day |
| N[C@@H](CCC(=O)O)C(=O)O |  | outcome [3]: inactive; no positive results |
| CCCCCC(N)=O |  | Potency (TargetSites_Mouse_Female: no positive results): 16.9 mmol/kg/day |
| CCCN(N)C=O |  | Potency (TD50_Mouse_Note: TD50 is harmonic mean of more than one positive test, TargetSites_Mouse_Female: gall bladder, liver, lung): 0.061 mmol/kg/day |
| O=C(O)COc1ccc(Cl)cc1Cl | inactive; no positive results |  |
| O=C(c1ccccc1)C(O)c1ccccc1 (configuration not stated) | inactive; no positive results |  |
| CN1CCC[C@H]1c1cccnc1 | inactive; no positive results |  |
| CCNc1nc(Cl)nc(NC(C)C)n1 | inactive; no positive results |  |
| C[N+](=O)[O-] |  | Potency (TD50_Mouse_Note: TD50 is harmonic mean of more than one positive test, TargetSites_Mouse_Female: harderian gland, liver, lung): 7.68 mmol/kg/day |
| Nc1ccc2ccccc2c1S(=O)(=O)O | inactive; no positive results |  |
| O=P(OCCCl)(OCCCl)OCCCl |  | Potency (TD50_Mouse_Note: TD50 is harmonic mean of more than one positive test, TargetSites_Mouse_Female: hematopoietic system, stomach): 3.39 mmol/kg/day |
| NC(=S)NNS(=O)(=O)c1ccccc1 | inactive |  |
| CC(=O)NNC(=O)c1ccncc1 |  | Potency (TD50_Mouse_Note: TD50 is harmonic mean of more than one positive test, TargetSites_Mouse_Female: lung): 1.84 mmol/kg/day |
| CCCNC(=O)NS(=O)(=O)c1ccc(Cl)cc1 | inactive; no positive results |  |
| Cc1cc(C)c(S(=O)(=O)O)cc1N=Nc1cc(S(=O)(=O)O)c2ccccc2c1O |  | outcome [6]: inactive |
| C=CC(O)c1ccc2c(c1)OCO2 (configuration not stated) |  | Potency [2]: 0.4 mmol/kg/day |
| CN(C)C(=S)SSC(=S)N(C)C | inactive; no positive results |  |
| CS(=O)(=O)OCCCNCCCOS(C)(=O)=O | inactive; no positive results |  |

| Compound | outcome [1] | also measured |
| --- | --- | --- |
| CC(=O)Nc1ccc(S(=O)(=O)O)c2cc(S(=O)(=O)O)c(N=Nc3ccc(N=Nc4ccc(S(=O)(=O)O)cc4)c4ccc(S(=O)(=O)O)cc34)c(O)c12 | inactive; no positive results |  |
| Cc1cc(N=Nc2c(O)ccc3ccccc23)c(S(=O)(=O)O)cc1Cl | inactive; no positive results |  |
| CCOC(=O)CC(SP(=S)(OC)OC)C(=O)OCC (configuration not stated) | inactive; no positive results |  |
| CC(C)NCC(O)c1ccc(NS(C)(=O)=O)cc1 (configuration not stated) | inactive; no positive results |  |
| Cc1cc(N=Nc2ccccc2C)ccc1N |  | outcome [3]: inactive; no positive results |
| S=[Se] |  | Potency (TargetSites_Mouse_Female: liver, lung): 0.624 mmol/kg/day |
| CC(C)OC(=O)COc1ccc(Cl)cc1Cl | inactive; no positive results |  |
| C=C1C(C)(C)[C@@]2(Cl)C(Cl)[C@]1(Cl)C(Cl)(Cl)C2(Cl)Cl (some centres not stated) |  | Potency (TD50_Mouse_Note: TD50 is harmonic mean of more than one positive test, TargetSites_Mouse_Female: no positive results): 0.00234 mmol/kg/day |
| FC(F)(Cl)Cl | inactive; no positive results |  |
| COc1ccc(C(c2ccc(OC)cc2)C(Cl)(Cl)Cl)cc1 | inactive; no positive results |  |
| O=[Se]=O |  | outcome [3]: inactive |
| O=S(=O)(c1ccc(Cl)cc1)c1cc(Cl)c(Cl)cc1Cl | inactive; no positive results |  |
| C/C=C/C(=O)Oc1c(C(C)CCCCCC)cc([N+](=O)[O-])cc1[N+](=O)[O-] (configuration not stated) | inactive; no positive results |  |
| CCN(Cc1cccc(S(=O)(=O)[O-])c1)c1ccc(C(=C2C=CC(=[N+](C)C)C=C2)c2ccc(N(CC)Cc3cccc(S(=O)(=O)O)c3)cc2)cc1 | inactive; no positive results |  |
| Oc1cccc(O)c1 | inactive; no positive results |  |
| NC(N)=NC(N)=NCCc1ccccc1 | inactive; no positive results |  |
| C[C@]12CC[C@@H]3c4ccc(OC(=O)Cc5ccc(N(CCCl)CCCl)cc5)cc4CC[C@H]3[C@@H]1CC[C@@H]2OC(=O)Cc1ccc(N(CCCl)CCCl)cc1 |  | Potency (TD50_Mouse_Note: TD50 is harmonic mean of more than one positive test, TargetSites_Mouse_Female: hematopoietic system, lung, myocardium, stomach): 0.00184 mmol/kg/day |
| NC(=O)c1cnccn1 |  | outcome (TD50_Mouse_Note: no positive results, TargetSites_Mouse_Female: NTP bioassay inadequate): inactive; no positive results |
| COc1ccc(CN(CCN(C)C)c2ccccn2)cc1 | inactive; no positive results |  |
| CC(=O)[O][Hg][c]1ccccc1 | inactive; no positive results |  |
| ClCOCCCCCCOCCl | inactive |  |
| [N-]=[N+]=O | inactive; no positive results |  |
| Nc1ccc(Oc2ccc(Cl)cc2)cc1 |  | Potency (TargetSites_Mouse_Female: urinary bladder, vascular system): 1.58 mmol/kg/day |
| COC1=CC(=O)C[C@@H](C)[C@]12Oc1c(Cl)c(OC)cc(OC)c1C2=O |  | Potency (TD50_Mouse_Note: TD50 is harmonic mean of more than one positive test, TargetSites_Mouse_Female: mammary gland): 0.0391 mmol/kg/day |
| N[C@@H](Cc1ccc(N(CCCl)CCCl)cc1)C(=O)O |  | Potency (TD50_Mouse_Note: positive test results only by intraperitoneal or intravenous injection, TD50 is harmonic mean of more than one positive, TargetSites_Mouse_Female: lung): 0.000491 mmol/kg/day |
| CC[C@H]1CN2CCc3cc(OC)c(OC)cc3[C@@H]2C[C@@H]1C[C@H]1NCCc2cc(OC)c(OC)cc21 |  | outcome (TD50_Mouse_Note: only experiment is NCI/NTP bioassay inadequate, TargetSites_Mouse_Female: NTP bioassay inadequate): ntp bioassay inadequate |
